# Measured values taken from ChEMBL document CHEMBL1134148, “Combinatorial synthesis of CCR5 antagonists” (Bioorg Med Chem Lett, 2001).
# Calls of active or inactive are those of the source. No cut-off for these calls is given here.
# Legend:
# [1] = molecular target: T1, C-C chemokine receptor type 5 (Homo sapiens, UniProt P51681); assay: Ability to inhibit binding of [125I]-MIP-1 alpha to C-C chemokine receptor type 5 in Chinese hamster ovary (CHO) cell membranes
# [2] = molecular target: T1, C-C chemokine receptor type 5; assay: Ability to inhibit binding of [125I]-MIP-1 alpha to C-C chemokine receptor type 5 in Chinese hamster ovary (CHO) cell membranes.
# [3] = tested on: Human immunodeficiency virus 1; assay: Inhibitory concentration for viral growth over 7 days vs YU-2 strain of HIV-1;NA means No significant activity at 10 uM.; format: functional, organism-based
# [4] = molecular target: T1, C-C chemokine receptor type 5; assay: Ability to inhibit binding of [125I]-MIP-1 alpha to C-C chemokine receptor type 5 in Chinese hamster ovary (CHO) cell membranes;NA means no significant activity.
# [5] = tested on: Human immunodeficiency virus 1; assay: Inhibitory concentration for viral growth over 7 days vs YU-2 strain of HIV-1 at 10 uM; format: functional; conditions: Human immunodeficiency virus 1, 168 h
# T1 sequence (P51681 whole entry): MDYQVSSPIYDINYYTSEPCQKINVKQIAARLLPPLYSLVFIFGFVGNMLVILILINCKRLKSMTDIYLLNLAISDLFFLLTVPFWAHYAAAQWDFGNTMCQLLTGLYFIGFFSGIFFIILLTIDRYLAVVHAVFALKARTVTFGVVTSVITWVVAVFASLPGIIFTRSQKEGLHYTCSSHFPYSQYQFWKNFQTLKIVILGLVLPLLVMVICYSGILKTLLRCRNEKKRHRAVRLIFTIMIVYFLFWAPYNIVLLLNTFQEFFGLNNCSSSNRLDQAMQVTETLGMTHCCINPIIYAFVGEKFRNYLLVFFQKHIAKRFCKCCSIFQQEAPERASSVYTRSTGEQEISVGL
Structure (SMILES),IC50 [1],IC50 [2],also measured
c1ccc(CCCC2CCN(C[C@H]3CN(CC4CCCCC4)C[C@@H]3c3ccccc3)CC2)cc1,6.5 nM,,
CN(CC(CCN1CCC(O)(CCCc2ccccc2)CC1)c1ccccc1)S(=O)(=O)c1cccs1 (stereo unspecified),,6.5 nM,
CN(CC1CCCCC1)CC(CCN1CCC(O)(CCCc2ccccc2)CC1)c1ccccc1 (stereo unspecified),,,IC50 [4]: Not Active
O=S(=O)(c1ccc(-c2ccccn2)s1)N1C[C@H](CN2CCC(O)(CCCc3ccccc3)CC2)[C@@H](c2ccccc2)C1,41 nM,,
CN(CC1CCCCC1)CC(CCN1CCC(CCCc2ccccc2)CC1)c1ccccc1 (stereo unspecified),,,IC50 [4]: Not Active
CN(CC(CCN1CCC(CCCc2ccccc2)CC1)c1ccccc1)S(=O)(=O)c1ccc(-c2ccccn2)s1 (stereo unspecified),,2 nM,IC95 [5]: 3100 nM
O=S(=O)(c1ccc(-c2ccccn2)s1)N1C[C@H](CN2CCC(CCCc3ccccc3)CC2)[C@@H](c2ccccc2)C1,60 nM,,

# The next lines start with results.
IC50 [1],IC50 [2],Structure (SMILES),also measured
,3 nM,CN(CC(CCN1CCC(CCCc2ccccc2)CC1)c1ccccc1)S(=O)(=O)c1cccs1 (stereo unspecified),IC95 [3]: inactive
1 nM,,OC1(CCCc2ccccc2)CCN(C[C@H]2CN(CC3CCCCC3)C[C@@H]2c2ccccc2)CC1,IC95 [5]: 580 nM
,4 nM,CN(CC(CCN1CCC(O)(CCCc2ccccc2)CC1)c1ccccc1)S(=O)(=O)c1ccc(-c2ccccn2)s1 (stereo unspecified),IC95 [5]: 6200 nM
20 nM,,O=S(=O)(c1cccs1)N1CC(CN2CCC(O)(CCCc3ccccc3)CC2)[C@@H](c2ccccc2)C1 (stereo partly specified),
25 nM,,O=S(=O)(c1cccs1)N1C[C@H](CN2CCC(CCCc3ccccc3)CC2)[C@@H](c2ccccc2)C1,
